Results reported in patent publication US20120040966A1, “ANTI-VIRAL COMPOUNDS, TREATMENT, AND ASSAY” (priority 2008, published 2012).
Like-named read-outs stand apart in the source and are kept apart here.

What was measured:
[1] = tested on: influenza strain A/VN/1203/2004 (H5N1); test: microbe, parasite or virus in culture; assay type: cell-based, Influenza A virus (H5N1)
[2] = tested on: Madin Darby Canine Kidney (MDCK) cells; test: cells; assay type: cell-based; conditions: read-out: IC50 (toxicity)
[3] = Influenza A virus, H5N1, MDCK, 72 h, read-out: H5N1 EC50 (@ 50% Via)
[4] = Influenza A virus, H5N1, MDCK, 72 h, read-out: H5N1 EC50 (Inf Pt)
[5] = read-out: H5N1 EC50 (@ 50% Via)

| Structure (SMILES) | EC50 [1, 3] [µM] | EC50 [1, 4] [µM] | EC50 ([1]; read-out: H5N1 EC50 (Inf Pt)) [µM] | IC50 ([2]; Canis lupus familiaris, MDCK) [µM] | EC50 [1, 5] [µM] | IC50 [2] [µM] |
| --- | --- | --- | --- | --- | --- | --- |
| COc1ccc(C2NC(=O)NC3=C2CCN(C(C)=O)c2ccccc23)cc1Br (stereo not shown) [28000A] | > 20 |  |  |  |  |  |
| COc1ccc(C2NC(=O)NC3=C2CCN(C(=O)CO)c2ccccc23)cc1Br (stereo not shown) [28001A] | > 20 |  |  |  |  |  |
| COc1ccc(C2NC(=O)NC3=C2CCN(C(=O)COC(C)=O)c2ccccc23)cc1Br (stereo not shown) [28002A] | > 20 |  |  |  |  |  |
| Cc1cccc(C2NC(=O)NC3=C2CCc2ccccc23)c1 (stereo not shown) [compound 22081] |  | 0.55 | 0.52 | > 50 |  |  |
| Cc1ccc(C2NC(=O)NC3=C2CCc2ccccc23)cc1C (stereo not shown) [compound 22082] |  |  |  | > 50 |  |  |
| Cc1ccc(-c2nc(=O)[nH]c3c2Cc2ccccc2-3)cc1 [compound 22084] | > 50 |  |  | > 50 |  |  |
| Oc1nc(-c2ccc3c(c2)OCO3)c2c(n1)-c1ccccc1CC2 [compound 22085] |  |  |  | > 50 | < 0.48 |  |
| O=C1NC2=C(CCc3ccccc32)C(c2cccnc2)N1 (stereo not shown) [compound 22086] | > 50 |  |  | > 50 |  |  |
| COc1cccc2c1CCc1c(-c3ccc(C)cc3)nc(O)nc1-2 [compound 22088] |  |  |  | > 50 | 15.4 |  |
| Cc1ccc(-c2nc(O)nc3c2COc2ccccc2-3)cc1C [compound 22106] | > 50 | > 50 |  | > 50 |  |  |
| COc1cccc(-c2nc(O)nc3c2COc2ccccc2-3)c1 [compound 22108] | > 50 | > 50 |  | > 50 |  |  |
| Cc1cccc(-c2nc(O)nc3c2COc2ccccc2-3)c1 [compound 22110] | 10.4 | 8.6 |  | > 50 |  |  |
| COc1cccc(C2NC(=O)NC3=C2CCc2c(OC)cccc23)c1 (stereo not shown) [compound 22111] | > 50 | > 50 |  | > 50 |  |  |
| COc1cccc(-c2nc(O)nc3c2CCc2c(OC)cccc2-3)c1 [compound 22112] | > 50 | > 50 |  | > 50 |  |  |
| COc1cccc2c1CCc1c(-c3ccc(C)c(C)c3)nc(O)nc1-2 [compound 22114] | 13.5 |  |  | > 50 | 9.1 |  |
| COc1cc(C2NC(=O)NC3=C2CCc2ccccc23)cc(OC)c1OC (stereo not shown) [compound 22115] | > 50 | > 50 |  | > 50 |  |  |
| COc1cc(-c2nc(O)nc3c2CCc2ccccc2-3)cc(OC)c1OC [compound 22116] | > 50 | > 50 |  | > 50 |  |  |
| O=C1NC2=C(CCCc3ccccc32)C(c2ccc3c(c2)OCO3)N1 (stereo not shown) [compound 22117] | 4.8 | 2.9 | 4 | > 50 | 6.8 |  |
| Oc1nc(-c2ccc3c(c2)OCO3)c2c(n1)-c1ccccc1CCC2 [compound 22118] | > 50 | > 50 |  | > 50 |  |  |
| Nc1nc(-c2ccc3c(c2)OCO3)c2c(n1)-c1ccccc1CC2 [compound 22120] | > 50 | > 50 |  | > 50 |  |  |
| Oc1nc(-c2ccc3c(c2)OCO3)c2c(n1)-c1ccccc1CC2 [compound 22122] |  | > 50 |  |  | > 50 | > 50 |

| Structure (SMILES) | EC50 [1, 3] [µM] | EC50 [1, 4] [µM] | EC50 ([1]; read-out: H5N1 EC50 (Inf Pt)) [µM] | IC50 ([2]; Canis lupus familiaris, MDCK) [µM] | EC50 [1, 5] [µM] | IC50 [2] [µM] |
| --- | --- | --- | --- | --- | --- | --- |
| COc1cccc2c1CCc1c(-c3ccc(C)cc3)nc(O)nc1-2 [compound 22124] |  | > 50 |  |  | > 50 | > 50 |
| O=C1NC2=C(Cc3ccccc32)C(c2ccc3c(c2)OCO3)N1 (stereo not shown) [compound 22126] | > 50 | > 50 |  | > 50 |  |  |
| COc1ccc(C2NC(=O)NC3=C2Cc2ccccc23)cc1 (stereo not shown) [compound 22127] | > 50 | > 50 |  | > 50 |  |  |
| COc1ccc(-c2nc(O)nc3c2Cc2ccccc2-3)cc1 [compound 22128] | > 50 | > 50 |  | > 50 |  |  |
| COc1ccc(C2NC(=O)NC3=C2COc2ccccc23)cc1 (stereo not shown) [compound 22129] | > 50 | > 50 |  | > 50 |  |  |
| O=C1NC2=C(CCc3ccccc32)C(c2ccc(Cl)c(Cl)c2)N1 (stereo not shown) [compound 22130] |  |  |  | > 50 |  |  |
| CC1CC2=C(NC(=O)NC2c2ccc3c(c2)OCO3)c2ccccc21 (stereo not shown) [compound 22342] | 0.72 | 0.39 |  | > 50 |  |  |
| O=C1NC2=C(CCc3ccccc32)C(c2ccc3c(c2)OCCO3)N1 (stereo not shown) [compound 22343] | 45.7 | 31.9 |  | > 50 |  |  |
| COc1ccc2c(c1)CCC1=C2NC(=O)NC1c1ccc2c(c1)OCO2 (stereo not shown) [compound 22344] | > 50 | > 50 |  | > 50 |  |  |
| Cc1cccc(C2NC(=O)NC3=C2CCCc2ccccc23)c1 (stereo not shown) [compound 22345] | 18.8 | 13.6 |  | > 50 |  |  |
| O=C1NC2=C(CCc3ccccc32)C(c2ccc3ccccc3c2)N1 (stereo not shown) [compound 22346] | ≥ 55 | > 50 |  | > 50 |  |  |
| Nc1cccc(C2NC(=O)NC3=C2CCc2ccccc23)c1 (stereo not shown) [compound 22348] | > 50 | > 50 |  | > 50 |  |  |
| Nc1ccc(C2NC(=O)NC3=C2CCc2ccccc23)cc1 (stereo not shown) [compound 22350] | 30.6 | 17.9 |  | > 50 |  |  |
| COc1nc(-c2ccc3c(c2)OCO3)c2c(n1)-c1ccccc1CC2 [compound 22402] | 8.4 | 5.2 | 5.7 | > 50 | 14.5 |  |
| Cn1c2c(c(-c3ccc4c(c3)OCO4)nc1=O)CCc1ccccc1-2 [compound 22403] | 5.2 | 1.7 | 2 | > 50 | 5.7 |  |
| COc1ccc(C2NC(=O)NC3=C2CCc2ccccc23)cc1O (stereo not shown) [compound 22407] | > 50 | > 50 |  | > 50 |  |  |
| COc1cc(C2NC(=O)NC3=C2CCc2ccccc23)ccc1O (stereo not shown) [compound 22408] | > 50 | > 50 |  | > 50 |  |  |
| COc1ccc(C2NC(=O)NC3=C2CCc2ccccc23)c(OC)c1OC (stereo not shown) [compound 22410] | > 50 | > 50 |  | > 50 |  |  |
| O=C1NC2=C(CCc3ccccc32)C(c2cccc3c2OCO3)N1 (stereo not shown) [compound 22411] | > 50 | > 50 |  | > 50 |  |  |
| Oc1nc(-c2ccc3c(c2)OCO3)c2c(n1)-c1ccccc1OC2c1ccccc1 (stereo not shown) [compound 22422] | > 50 | > 50 |  | > 50 |  |  |
| COc1cc(OC)cc(C2NC(=O)NC3=C2CCc2ccccc23)c1 (stereo not shown) [compound 22518] | 4.7 | 3.4 |  | > 50 |  |  |

| Structure (SMILES) | EC50 [1, 3] [µM] | EC50 [1, 4] [µM] | EC50 ([1]; read-out: H5N1 EC50 (Inf Pt)) [µM] | IC50 ([2]; Canis lupus familiaris, MDCK) [µM] | EC50 [1, 5] [µM] | IC50 [2] [µM] |
| --- | --- | --- | --- | --- | --- | --- |
| COc1cc(C2NC(=O)NC3=C2CSc2ccccc23)ccc1F (stereo not shown) [compound 22519] |  | 6.5 |  | > 50 |  |  |
| COc1ccc(C2NC(=O)NC3=C2CSc2ccccc23)cc1F (stereo not shown) [compound 22523] | 0.76 | 0.55 |  | > 50 |  |  |
| O=C1NC2=C(CCc3ccccc32)C(c2cc(Br)c(O)c(Br)c2)N1 (stereo not shown) [compound 22702] | > 40 | > 40 |  | > 40 |  |  |
| Cc1cc(C2NC(=O)NC3=C2CCc2ccccc23)cc(C)c1O (stereo not shown) [compound 22705] | > 40 | 10 |  | > 40 |  |  |
| COc1ccc(C2NC(=O)N(Cl)C3=C2CCc2ccccc23)cc1Br (stereo not shown) [compound 22707] | 0.192 | 0.186 |  | > 50 |  |  |
| COc1ccc(C2NC(=O)N(O)C3=C2CCc2ccccc23)cc1Br (stereo not shown) [compound 22708] | 1.1 | > 0.95 |  | > 50 |  |  |
| COc1ccc(-c2nc(=O)[nH]c3c2CCc2ccccc2-3)cc1Br [compound 22710] | > 50 | > 50 |  | > 50 |  |  |
| COc1ccc(C2NC(=O)NC3=C2CNc2ccccc23)cc1Br (stereo not shown) [compound 23100] | 0.637 | 0.718 |  | > 40 |  |  |
| COc1ccc(C2NC(=O)NC3=C2CN(C)c2ccccc23)cc1Br (stereo not shown) [compound 23101] | > 6 | > 6 |  | > 40 |  |  |
| COc1ccc(C2NC(=O)NC3=C2CN(S(C)(=O)=O)c2ccccc23)cc1Br (stereo not shown) [compound 23207] | 29 | 31 |  | > 40 |  |  |
| COc1ccc(C2NC(=O)NC3=C2CN(C(=O)c2ccncc2)c2ccccc23)cc1Br (stereo not shown) [compound 23208] | > 40 | > 40 |  | > 40 |  |  |
| COc1ccc(C2NC(=O)Nc3c2cnc2ccccc32)cc1Br (stereo not shown) [compound 23273] | 2.1 | 1.6 |  | > 40 |  |  |
| COc1ccc(C2NC(=O)NC3=C2CN(C(=O)CN)c2ccccc23)cc1Br (stereo not shown) [compound 24716] | 3.1 | 3.1 |  | > 40 |  |  |
| CCN(CC)CC(=O)N1CC2=C(NC(=O)NC2c2ccc(OC)c(Br)c2)c2ccccc21 (stereo not shown) [compound 24719] | 1.2 | 1.2 |  | > 40 |  |  |
| COc1ccc(C2NC(=O)NC3=C2CN(C(=O)C[n+]2ccccc2)c2ccccc23)cc1Br (stereo not shown) [compound 25009] | 7.1 | 7.1 |  | > 40 |  |  |
| CCOC(=O)CCC(=O)N1CC2=C(NC(=O)NC2c2ccc(OC)c(Br)c2)c2ccccc21 (stereo not shown) [compound 25484] | > 20 |  |  |  |  |  |
| COc1ccc(C2NC(=O)NC3=C2CN(C(=O)OCCO)c2ccccc23)cc1Br (stereo not shown) [compound 25575] | 4.7 |  |  |  |  |  |
| COCCOC(=O)N1CC2=C(NC(=O)NC2c2ccc(OC)c(Br)c2)c2ccccc21 (stereo not shown) [compound 25576] | > 20 |  |  |  |  |  |
| CCOC(=O)N1CC2=C(NC(=O)NC2c2ccc(OC)c(Br)c2)c2ccccc21 (stereo not shown) [compound 25577] | > 20 | > 20 |  |  |  |  |
| CCOC(=O)CCC(=O)N1CC2=C(NC(=O)NC2c2ccc(OC)c(Br)c2)c2ccccc21 (stereo not shown) [compound 25578] |  | > 10 |  |  | > 20 |  |
